{"source": "patent US20070191357A1", "about": "“METHODS OF USING POTASSIUM CHANNEL INHIBITING COMPOUNDS” (priority 2005, published 2007)", "data": [{"biological_target": "T1, human potassium Kv1.3 (Homo sapiens, UniProt P22001)", "T1 construct": "expressed in transfected cells; host or cells: stably transfected cells grown in serum-free medium for CHO cells (CHO inferred from the medium)", "T1 sequence (P22001 whole entry)": "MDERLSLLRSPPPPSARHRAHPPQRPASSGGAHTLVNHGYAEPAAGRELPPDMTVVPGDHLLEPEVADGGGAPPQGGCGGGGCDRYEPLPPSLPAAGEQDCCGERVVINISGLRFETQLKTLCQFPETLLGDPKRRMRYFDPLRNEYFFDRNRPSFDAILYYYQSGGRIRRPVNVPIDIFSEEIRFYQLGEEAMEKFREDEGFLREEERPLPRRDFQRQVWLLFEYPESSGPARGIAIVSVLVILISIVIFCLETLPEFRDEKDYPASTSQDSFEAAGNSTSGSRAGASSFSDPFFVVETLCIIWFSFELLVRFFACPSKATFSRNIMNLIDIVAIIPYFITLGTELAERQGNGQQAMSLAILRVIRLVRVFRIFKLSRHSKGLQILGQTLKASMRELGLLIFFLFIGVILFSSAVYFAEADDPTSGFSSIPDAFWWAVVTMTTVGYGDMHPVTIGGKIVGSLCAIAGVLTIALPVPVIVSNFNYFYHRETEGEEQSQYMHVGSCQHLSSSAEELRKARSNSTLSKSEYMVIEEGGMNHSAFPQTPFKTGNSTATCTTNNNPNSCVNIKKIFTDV", "assay": "Electrophysiological examination (whole-cell patch-clamp) of the Kv1.3-mediated potassium current in CHO cells", "type": "cell-based", "conditions": "10 μM example compound 1, time course", "procedure": "(§1) 1. Electrophysiological Examination of Test Compounds on the KV1.3-Mediated Potassium Current\n(§2) cDNA coding for the human potassium Kv1.3 was cloned into a standard vector. A C-terminal epitope-tag was introduced via PCR. The plasmid was sequenced and subsequently introduced into cells and a clonal cell line was established. Expression of protein was analyzed by means of immunofluorescence using antibodies directed against the epitope-tag.\n(§3) Experiments were performed in CHO cells stably expressing the potassium Kv1.3 potassium channel. […]\n(§4) Patch-clamp experiments were performed in the voltage-clamp mode (Hamill et al., 1981) and whole-cell currents were recorded. Patch pipettes were pulled from borosilicate glass tubes. Current signals were amplified and digitized by an EPC patch-clamp amplifier (HEKA-Electronics, Lambrecht, Germany), stored and analyzed on a personal computer using the Pulse/Pulsefit software (HEKA, Lambrecht, Germany). Experiments were conducted at room temperature.\n(§5) For investigating effects and reversibility of a test compound on the Kv1.3 potassium channel, CHO cells were clamped at a holding potential (HP) of −80 mV. The following stimulation protocol (scheme 1) was applied successively and the induced currents have been recorded: […]\n(§6) The application protocol of the test compound is depicted in scheme 2. […] Nonspecific current reduction was calculated and serves for correction procedures during data analysis. […] Effect of the test compound was analyzed between stimulus nos. […]\n(§7) The appropriate experiment was selected from the data tree in the Pulse software. […] The leak current amplitude during the prepulse to −90 mV and the peak current amplitude of the test-pulse to +40 mV were measured by placing the cursors on the oscilloscope screen (FIG. 3). […]\n(§8) FIG. 1: Kv1.3-mediated potassium current. […] The two cursors on the right indicate the range of the test pulse, where the peak current amplitude was evaluated (205-230 ms of the test pulse to +40 mV). The two cursors on the left indicate the area where the mean leak current was evaluated (100-140 ms of the test pulse to −90 mV). […]", "values": [{"smiles": "CN=C(NS(=O)(=O)c1ccc(Cl)cc1)N1C[C@H](c2ccccc2)C(c2ccc(Cl)cc2)=N1", "note": "[example compound 1]", "Effect on current amplitude (in words)": "significant current reduction"}]}, {"biological_target": "T1, human potassium Kv1.3", "assay": "Electrophysiological examination (whole-cell patch-clamp) of the Kv1.3-mediated potassium current in CHO cells", "type": "cell-based", "conditions": "in the presence of 0.1% BSA; fit of equation (4)", "procedure": "as §1, §2, §3, §4, §5, §6, §7, §8", "values": [{"smiles": "CN=C(NS(=O)(=O)c1ccc(Cl)cc1)N1C[C@H](c2ccccc2)C(c2ccc(Cl)cc2)=N1", "note": "[example compound 1]", "Hill coefficient nH": "0.72±0.22"}]}, {"biological_target": "T1, human potassium Kv1.3", "assay": "Electrophysiological examination (whole-cell patch-clamp) of the Kv1.3-mediated potassium current in CHO cells", "type": "cell-based", "conditions": "over the tested concentrations", "procedure": "as §1, §2, §3, §4, §5, §6, §7, §8", "values": [{"smiles": "CN=C(NS(=O)(=O)c1ccc(Cl)cc1)N1C[C@H](c2ccccc2)C(c2ccc(Cl)cc2)=N1", "note": "[example compound 1]", "Effect on outward Kv1.3-mediated current amplitudes (in words)": "reduced in a concentration-dependent manner"}]}, {"system": "not listed separately", "assay": "Solubility as noted during the Kv1.3 patch-clamp experiments", "conditions": "bath solution; 0.1% BSA used to overcome it", "values": [{"smiles": "CN=C(NS(=O)(=O)c1ccc(Cl)cc1)N1C[C@H](c2ccccc2)C(c2ccc(Cl)cc2)=N1", "note": "[example compound 1]", "Solubility (in words)": "low solubility"}]}, {"biological_target": "T1, human potassium Kv1.3", "assay": "Potassium Kv1.3 autopatch electrophysiology method, percentage charge inhibition", "type": "cell-based", "conditions": "concentration not given (compounds made up at 1 μM and 10 μM)", "procedure": "2. Electrophysiological Examination of Test Compounds on the Kv1.3-Mediated Potassium Current (Potassium Kv1.3 Autopatch Electrophysiology Method)\nIn another set of experiments, the inhibition of the potassium Kv1.3 channel has been measured.\nCells stably transfected with cDNA for human potassium Kv1.3 (in pcDNA3.1) were grown in Ex-cell 302 serum-free medium for CHO cells, supplemented with 10 μl/ml [100×] glutamine, 500 μg/ml G418, and 1% HT supplement (50×, hypoxanthine and thymidine). The cells were cultured in 350 ml spinner (Techne) spun at 80 rpm, at 37° C. in a water-saturated 5% CO2 incubator. The day of the preparation an aliquot of cells was 5 times diluted in fresh media and counted with a glass counting chamber type Malassez. Then six tubes of 10 ml were prepared at 6×10^6 c/ml. The tubes were then placed at 4° C. until their use.\nThe external bathing solution contained (in mM): 150 NaCl, 10 KCl, 1 MgCl2, 3 CaCl2 and 10 HEPES. The pH was adjusted to 7.4 with NaOH. Patch pipettes were filled with a pipette solution of composition (in mM): 100 K-Gluconate, 20 KCl, 1 MgCl2, 1 CaCl2, 10 HEPES, 11 EGTA, 5 ATP-Na2 and 2 Glutathione. The pH was adjusted to 7.2 with KOH. Using fresh 100 ml bathing solution, 0.05% BSA re-suspension solution (0.05 g BSA/100 ml bather) was prepared.\nCompounds were dissolved in DMSO (100%) and made up in the external bather at concentrations of 1 μM and 10 μM. All experiments were conducted at room temperature.\nTwo tubes of cell suspension were centrifuged at 1000 rpm for 4 minutes at room temperature. 10 ml of supernatant was carefully aspirated and discarded from each tube, with care being taken not to aspirate the cell pellet sitting at the bottom of the tube. The cell pellet of each tube was broken-up by gentle manual agitation of the tube. 600 μl of re-suspension solution was added to the cell pellet, followed by a gentle trituration step to re-suspend the cells. Once re-suspended, 600 μl of solution per tube was removed from each tube, such that 1.2 ml of cell suspension was obtained in total and placed in a temperature-controlled cell hotel, set at either 4° C. or dew point. Cells were maintained in suspension in the hotel through gentle trituration every 30 s via an automatic cell suspension system.\nHarvard borosilicate capillary glass (GC1507F-10, […], supplied in 100 mm lengths) was cut down to 24 mm lengths using a Dagen capillary cutter. Short (13 mm) patch pipettes were pulled using a 2-stage pull on a specially adapted DMZ pipette puller (Zeitz Instruments). Patch pipettes typically have resistances of 2.3-3.5 MΩ. As the patch pipettes were pulled in batches, pipette tip resistance was measured every tenth pipette using a Tenma meter in order to maintain consistency of tip resistance. Pulled pipettes were stored in Petri dish before filling.\nEach pipette was fully back-filled (from the tip to the end) using the internal pipette solution and the pipette tip was dipped in Sigmacote (Sigma). The pipette was then precisely inserted, tip first, into a pipette holder using a custom-made, pneumatic insertion rig, with the blunt end of the patch pipette sitting proud of the bottom of the pipette holder.\nWhole cell patch-clamp recordings (WCRs) were made using the AP2, which incorporates an EPC9 or EPC10 amplifier (HEKA, Germany) under control of Pulse software (v8.54 or v8.76, HEKA, Germany), the patch plate contact fixture, a Gilson autosampler for cell delivery (the cell sampler), a Gilson autosampler for drug preparation (the auto-sampler), the drug application system (DAS), a feedback-controlled suction device for enabling high resistance GΩ seals to be formed for the whole cell recording mode to be attained, a cell re-suspension system, a temperature-controlled cell hotel, a vacuum line and associated pumps for applying suction and for draining the patch plate wells of bather.\nUnder control of the AP2 software, automated patch-clamping was initiated. […]", "units": {"Inhibition of the Potassium Kv1.3 channel (%)": "%"}, "values": [{"smiles": "CNC(=NS(=O)(=O)c1ccc(Cl)cc1)N1CC(c2cccnc2)C(c2ccc(Cl)cc2)=N1", "note": "(stereo not shown)", "Inhibition of the Potassium Kv1.3 channel (%)": 88.7}, {"smiles": "CON/C(=N\\S(=O)(=O)c1ccc(Cl)cc1)N1C[C@H](c2cccc(F)c2)C(c2ccc(Cl)cc2)=N1", "Inhibition of the Potassium Kv1.3 channel (%)": 76.0}, {"smiles": "CNC(=NS(=O)(=O)N(C)C)N1CC(c2cccc(F)c2)C(c2ccc(Cl)cc2)=N1", "note": "(stereo not shown)", "Inhibition of the Potassium Kv1.3 channel (%)": 88.1}, {"smiles": "CN(C)CCNC(=NS(=O)(=O)N1CCCCC1)N1CC(c2ccccc2)C(c2ccc(Cl)cc2)=N1", "note": "(stereo not shown)", "Inhibition of the Potassium Kv1.3 channel (%)": 58.4}, {"smiles": "CN1CCC(CNC(=NS(=O)(=O)c2ccc(Cl)cc2)N2CC(c3ccccc3)C(c3ccc(Cl)cc3)=N2)C1", "note": "(stereo not shown)", "Inhibition of the Potassium Kv1.3 channel (%)": 96.2}, {"smiles": "O=S(=O)(N=C(NCCF)N1CC(c2ccccc2)C(c2ccc(Cl)cc2)=N1)c1ccc(Cl)cc1", "note": "(stereo not shown)", "Inhibition of the Potassium Kv1.3 channel (%)": 77.1}, {"smiles": "CNC(=NS(=O)(=O)N1CCC(O)CC1)N1CC(c2ccccc2)C(c2ccc(Cl)cc2)=N1", "note": "(stereo not shown)", "Inhibition of the Potassium Kv1.3 channel (%)": 92.8}, {"smiles": "CN[C@@H](Cc1c[nH]c2ccccc12)C(=O)N1CC(c2ccccc2)C(c2ccc(Cl)cc2)=N1", "note": "(stereo partly shown)", "Inhibition of the Potassium Kv1.3 channel (%)": 87.8}, {"smiles": "CCN(CC)C(=O)c1cn(-c2ccc(Cl)cc2)c(-c2ccc(Cl)cc2Cl)n1", "Inhibition of the Potassium Kv1.3 channel (%)": 76.2}, {"smiles": "CC1=Nc2ccc(Cl)cc2S(=O)(=O)N1", "note": "[Diazoxide, reference compound]", "Inhibition of the Potassium Kv1.3 channel (%)": 46.5}, {"smiles": "CCCCCCC(C)(C)c1cc(OC)c([C@H]2C=C(CO)[C@H]3C[C@@H]2C3(C)C)c(OC)c1", "note": "[HU-308, reference compound]", "Inhibition of the Potassium Kv1.3 channel (%)": 81.2}, {"smiles": "CC1(NC2=NS(=O)(=O)c3sc(Cl)cc3N2)CC1", "note": "[NN414, reference compound]", "Inhibition of the Potassium Kv1.3 channel (%)": 45.1}, {"smiles": "Cc1c(C(=O)c2cccc3ccccc23)c2cccc3c2n1[C@H](CN1CCOCC1)CO3", "note": "[R(+)-WIN55212-2, reference compound]", "Inhibition of the Potassium Kv1.3 channel (%)": 81.5}, {"smiles": "Cc1c(C(=O)NN2CCCCC2)nn(-c2ccc(Cl)cc2Cl)c1-c1ccc(Cl)cc1", "note": "[Rimonabant, reference compound]", "Inhibition of the Potassium Kv1.3 channel (%)": 89.2}, {"smiles": "CCc1c(C(=O)NN2CCCCC2)nn(-c2ccc(Cl)cc2Cl)c1-c1ccc(Br)cc1", "note": "[SR-147778, reference compound]", "Inhibition of the Potassium Kv1.3 channel (%)": 63.7}]}]}
